Test results reported in ChEMBL document CHEMBL1150135, “Pharacine, a natural p-cyclophane and other indole derivatives from Cytophaga sp. strain AM13.1” (J Nat Prod, 2002).
The source made the active and inactive calls.

Legend:
Format in all cases: functional, organism-based
Rhizomucor miehei = experiment: Antimicrobial activity against Mucor miehei by agar diffusion method
Candida albicans = experiment: Antimicrobial activity against Candida albicans by agar diffusion method
Staphylococcus aureus = experiment: Antimicrobial activity against Staphylococcus aureus by agar diffusion method
Bacillus subtilis = experiment: Antimicrobial activity against Bacillus subtilis by agar diffusion method
Escherichia coli = experiment: Antimicrobial activity against Escherichia coli by agar diffusion method
[1] = test system: Streptomyces viridochromogenes; experiment: Antimicrobial activity against Streptomyces viridochromogenes by agar diffusion method

Measured: Activity

O=C1OCCCCOC(=O)c2ccc(cc2)C(=O)OCCCCOC(=O)c2ccc1cc2
inactive: all assays above

c1ccc2c(Cc3cnc(Cc4c[nH]c5ccccc45)cn3)c[nH]c2c1
inactive: all assays above

CC(C)CC(=O)NCCc1c[nH]c2ccccc12
inactive: all assays above

NC(=O)Cc1ccc(O)cc1
inactive: all assays above
